Key:
[1] = NOVARTIS: Cytotoxicity against human hepatocellular carcinoma cell line (Huh7); assay type: toxicity, cell-based, Huh-7; conditions: Huh7 cells (hepatocellular carcinoma cell line)
Plasmodium falciparum [2] = experiment: NOVARTIS: Inhibition of Plasmodium falciparum 3D7 (drug-susceptible) proliferation in erythrocyte-based infection assay; assay type: functional, organism-based; conditions: Plasmodium falciparum, 3D7
Plasmodium falciparum [3] = experiment: NOVARTIS: Inhibition of Plasmodium falciparum W2 (drug-resistant) proliferation in erythrocyte-based infection assay; assay type: functional, organism-based; conditions: Plasmodium falciparum, W2; read-out: EC50

Question: Which CC50 [1] does the source give for NCCCCCCNc1ccnc2cc(Cl)ccc12 here?
Answer: > 10 µM

Question: What about the EC50 (Plasmodium falciparum [2]) of the same compound?
Answer: 0.288 µM

Question: What about the EC50 (Plasmodium falciparum [3]) of the same compound?
Answer: 0.132 µM

Question: For OCCNc1nc(Nc2ccccc2)nc2ccccc12, which CC50 [1] is on record?
Answer: 47.5 µM

Question: What about the EC50 (Plasmodium falciparum [2]) of the same compound?
Answer: 0.167 µM

Question: What about the EC50 (Plasmodium falciparum [3]) of the same compound?
Answer: 0.626 µM

Question: For CCOC(=O)C1=C(C)N=c2sc(=Cc3cc(Cl)ccc3O)c(=O)n2C1c1ccc2c(c1)OCO2 (stereo not given), which CC50 [1] is on record?
Answer: > 100 µM

Question: What about the EC50 (Plasmodium falciparum [2]) of the same compound?
Answer: 4.93 µM

Question: What about the EC50 (Plasmodium falciparum [3]) of the same compound?
Answer: 1.31 µM

Question: With CN1CCN(CCCNc2ccnc3cc4ccccc4cc23)CC1 as the compound, how does the CC50 [1] read?
Answer: 5.93 µM

Question: What about the EC50 (Plasmodium falciparum [2]) of the same compound?
Answer: 0.0241 µM

Question: What about the EC50 (Plasmodium falciparum [3]) of the same compound?
Answer: 0.0785 µM

Question: With COc1cc2c(cc1C=C(C#N)c1cccc(C)c1)OCO2 as the compound, how does the CC50 [1] read?
Answer: > 100 µM

Question: What about the EC50 (Plasmodium falciparum [2]) of the same compound?
Answer: > 9.74 µM

Question: And the EC50 (Plasmodium falciparum [3])?
Answer: 1.31 µM

Question: With O=C(c1cccs1)N1CCN(c2ccc([N+](=O)[O-])c(NC3CC3)c2)CC1 as the compound, how does the CC50 [1] read?
Answer: > 100 µM

Question: What about the EC50 (Plasmodium falciparum [2]) of the same compound?
Answer: 2.09 µM

Question: And the EC50 (Plasmodium falciparum [3])?
Answer: 1.37 µM

Question: With CCN1CCN(c2cc(C)c3cc(NC(=O)c4cccc([N+](=O)[O-])c4)ccc3n2)CC1 as the compound, how does the CC50 [1] read?
Answer: 20.3 µM

Question: What about the EC50 (Plasmodium falciparum [2]) of the same compound?
Answer: 0.096 µM

Question: And the EC50 (Plasmodium falciparum [3])?
Answer: 0.267 µM

Question: Which results are given for Cc1ccc(NC(=O)c2ccc(NCCCN3CC(C)CC(C)C3)c([N+](=O)[O-])c2)cc1F (stereo not given)?
Answer: CC50 [1]: > 53.6 µM; EC50 (Plasmodium falciparum [2]): 0.219 µM; EC50 (Plasmodium falciparum [3]): 0.736 µM

Question: For O=C(c1ccc(Cl)cc1Cl)N1CCCC(C(F)(F)F)C1 (stereo not given), which CC50 [1] is on record?
Answer: > 100 µM

Question: And the EC50 (Plasmodium falciparum [2])?
Answer: 0.663 µM

Question: What about the EC50 (Plasmodium falciparum [3]) of the same compound?
Answer: 1.4 µM

Question: Which results are given for COc1ccc(C(NC(=O)c2cccc(OC)c2)c2cc(Cl)c3cccnc3c2O)cc1 (stereo not given)?
Answer: CC50 [1]: > 100 µM; EC50 (Plasmodium falciparum [2]): 0.983 µM; EC50 (Plasmodium falciparum [3]): 1.38 µM

Question: What does the source list for O=C(Nc1ccccc1F)NC1CC2CCCC(C1)N2CCc1ccccc1 (stereo not given)?
Answer: CC50 [1]: > 10.6 µM; EC50 (Plasmodium falciparum [2]): 0.44 µM; EC50 (Plasmodium falciparum [3]): 0.14 µM

Question: Which CC50 [1] does the source give for COc1cc2nc(NCCN3CCOCC3)n3nc(-c4ccccc4)nc3c2cc1OC here?
Answer: > 10 µM

Question: And the EC50 (Plasmodium falciparum [2])?
Answer: 0.114 µM

Question: And the EC50 (Plasmodium falciparum [3])?
Answer: 0.134 µM

Question: Which CC50 [1] does the source give for C=CCC(=O)NC1CCN(CC(O)CN(Cc2ccccc2)S(=O)(=O)c2ccccc2)C1 (stereo not given) here?
Answer: > 100 µM

Question: What about the EC50 (Plasmodium falciparum [2]) of the same compound?
Answer: 0.257 µM

Question: And the EC50 (Plasmodium falciparum [3])?
Answer: 1.33 µM

Question: Which CC50 [1] does the source give for CCCN(CCC)CCCNc1ccc(C(=O)Nc2cccc(OC)c2)cc1[N+](=O)[O-] here?
Answer: 24 µM

Question: What about the EC50 (Plasmodium falciparum [2]) of the same compound?
Answer: 0.159 µM

Question: And the EC50 (Plasmodium falciparum [3])?
Answer: 0.32 µM

Question: Which CC50 [1] does the source give for CCC(CC)C(=O)Nc1c2c(nn1-c1cccc(Cl)c1)C[S+]([O-])C2 (stereo not given) here?
Answer: > 100 µM

Question: What about the EC50 (Plasmodium falciparum [2]) of the same compound?
Answer: 11.9 µM

Question: What about the EC50 (Plasmodium falciparum [3]) of the same compound?
Answer: 1.3 µM

Question: Which CC50 [1] does the source give for CN(CCCNc1ccnc2cc(Cl)ccc12)C(=O)C12CC3CC(CC(C3)C1)C2 here?
Answer: 14.1 µM

Question: And the EC50 (Plasmodium falciparum [2])?
Answer: 0.053 µM

Question: And the EC50 (Plasmodium falciparum [3])?
Answer: 0.184 µM

Question: Which results are given for COc1ccc2cc(CNC3CCN(Cc4ccccc4)CC3)c(=O)[nH]c2c1?
Answer: CC50 [1]: > 65.9 µM; EC50 (Plasmodium falciparum [2]): 0.671 µM; EC50 (Plasmodium falciparum [3]): 0.856 µM

Question: With COc1ccc(C=C2N=C(c3ccc(Cl)cc3)N(c3cc(Cl)ccc3C)C2=O)cc1OC as the compound, how does the CC50 [1] read?
Answer: > 100 µM

Question: And the EC50 (Plasmodium falciparum [2])?
Answer: 3.48 µM

Question: What about the EC50 (Plasmodium falciparum [3]) of the same compound?
Answer: 1.31 µM

Question: For O=C(O)CS(=O)(=O)c1ccc(C(=O)NCC(c2cccnc2)N2CCOCC2)cn1 (stereo not given), which CC50 [1] is on record?
Answer: > 10 µM

Question: What about the EC50 (Plasmodium falciparum [2]) of the same compound?
Answer: > 0.876 µM

Question: And the EC50 (Plasmodium falciparum [3])?
Answer: 0.131 µM

Question: For O=C(O)CCCNC(=O)C(O)(c1ccccc1)c1ccccc1, which CC50 [1] is on record?
Answer: > 100 µM

Question: And the EC50 (Plasmodium falciparum [2])?
Answer: > 12.5 µM

Question: What about the EC50 (Plasmodium falciparum [3]) of the same compound?
Answer: 1.33 µM

Question: For COc1ccc(CCNC(=O)CN(c2ccc(OC)c(OC)c2)S(=O)(=O)c2ccc(C)cc2)cc1OC, which CC50 [1] is on record?
Answer: > 100 µM

Question: What about the EC50 (Plasmodium falciparum [2]) of the same compound?
Answer: > 12.5 µM

Question: And the EC50 (Plasmodium falciparum [3])?
Answer: 1.33 µM

Question: Which CC50 [1] does the source give for COc1ccccc1CNC(=O)CCn1c(=O)[nH]c2ccccc2c1=O here?
Answer: > 10 µM

Question: What about the EC50 (Plasmodium falciparum [2]) of the same compound?
Answer: 0.537 µM

Question: What about the EC50 (Plasmodium falciparum [3]) of the same compound?
Answer: 0.133 µM

Question: What does the source list for COc1cc(C(=O)OCCC2CCC[N+]3(C)CCCCC23)cc(OC)c1OC (stereo not given)?
Answer: CC50 [1]: > 100 µM; EC50 (Plasmodium falciparum [2]): > 12.5 µM; EC50 (Plasmodium falciparum [3]): 1.34 µM

Question: Which CC50 [1] does the source give for CC(=O)N1CCOC1C(C)(C)CC=C(C)CCC=C(C)C (stereo not given) here?
Answer: > 100 µM

Question: And the EC50 (Plasmodium falciparum [2])?
Answer: 2.04 µM

Question: What about the EC50 (Plasmodium falciparum [3]) of the same compound?
Answer: 1.34 µM

Question: With CCNC(=O)C1CCN(c2cccc3c2C(=O)N(C2CCCCCCC2)C3=O)CC1 as the compound, how does the CC50 [1] read?
Answer: > 100 µM

Question: And the EC50 (Plasmodium falciparum [2])?
Answer: 1.75 µM

Question: What about the EC50 (Plasmodium falciparum [3]) of the same compound?
Answer: 1.31 µM

Question: For CSc1ccc(/C=C/C(=O)NC(=O)c2ccccc2O)cc1, which CC50 [1] is on record?
Answer: > 10 µM

Question: What about the EC50 (Plasmodium falciparum [2]) of the same compound?
Answer: 0.127 µM

Question: And the EC50 (Plasmodium falciparum [3])?
Answer: 0.131 µM

Question: For Oc1ccc(-c2ccccc2)cc1CN1CCCCC1, which CC50 [1] is on record?
Answer: > 10 µM

Question: What about the EC50 (Plasmodium falciparum [2]) of the same compound?
Answer: 1.08 µM

Question: What about the EC50 (Plasmodium falciparum [3]) of the same compound?
Answer: 0.132 µM

Question: Which CC50 [1] does the source give for CCCCNC(=O)NC(Cc1c[nH]c2ccccc12)C(=O)NC1CCCCC1 (stereo not given) here?
Answer: > 2.02 µM

Question: And the EC50 (Plasmodium falciparum [2])?
Answer: > 1.25 µM

Question: And the EC50 (Plasmodium falciparum [3])?
Answer: > 0.0283 µM

Question: For CC[n+]1c(/C=C/c2ccc(F)cc2)ccc2ccccc21, which CC50 [1] is on record?
Answer: > 10 µM

Question: What about the EC50 (Plasmodium falciparum [2]) of the same compound?
Answer: 0.122 µM

Question: And the EC50 (Plasmodium falciparum [3])?
Answer: 0.14 µM

Question: With CCNC(=S)NC1CC2CCCC(C1)N2CCc1ccccc1 (stereo not given) as the compound, how does the CC50 [1] read?
Answer: > 100 µM

Question: And the EC50 (Plasmodium falciparum [2])?
Answer: 1.59 µM

Question: What about the EC50 (Plasmodium falciparum [3]) of the same compound?
Answer: 1.39 µM

Question: With COc1ccc(C2CC(=O)C3=C(C2)NC(C)=C(C(=O)OC2CCCC2)C3c2cccc(C)c2)cc1OC (stereo not given) as the compound, how does the CC50 [1] read?
Answer: 14.9 µM

Question: And the EC50 (Plasmodium falciparum [2])?
Answer: 0.3 µM

Question: And the EC50 (Plasmodium falciparum [3])?
Answer: 0.208 µM

Question: Which CC50 [1] does the source give for CCOC(=O)c1c(-c2ccccc2)oc2c1C(=O)c1ccccc1C2=O here?
Answer: > 100 µM

Question: And the EC50 (Plasmodium falciparum [2])?
Answer: 1.13 µM

Question: And the EC50 (Plasmodium falciparum [3])?
Answer: 1.35 µM

Question: With Cc1noc(-c2ccc(O)cc2O)c1-c1ccc2c(c1)OCCO2 as the compound, how does the CC50 [1] read?
Answer: 15.2 µM

Question: And the EC50 (Plasmodium falciparum [2])?
Answer: 0.248 µM

Question: And the EC50 (Plasmodium falciparum [3])?
Answer: 0.204 µM

Question: With COc1ccc(C=CC(=O)NC(=O)c2ccccc2O)cc1OC as the compound, how does the CC50 [1] read?
Answer: > 100 µM

Question: What about the EC50 (Plasmodium falciparum [2]) of the same compound?
Answer: 1.29 µM

Question: And the EC50 (Plasmodium falciparum [3])?
Answer: 1.39 µM

Question: For O=C(Nc1ccc(Cl)cc1)N1CCN(c2ccc3nncn3n2)CC1, which CC50 [1] is on record?
Answer: > 100 µM

Question: What about the EC50 (Plasmodium falciparum [2]) of the same compound?
Answer: 2.06 µM

Question: And the EC50 (Plasmodium falciparum [3])?
Answer: 1.38 µM
